Source: patent publication US8524978B2, “Composition for production of plant body having improved sugar content, and use thereof” (Japan Science and Technology Agency, priority 2007, dated 2013)
Entries after “also recorded” stand apart in the source; their conditions may differ.

What was measured:
[1] = tested on: Lycopersicum esculentum; assay: Sugar content determination of Lycopersicum esculentum fruit with refractometer (Example 2); format: in vivo; conditions: 0.5 mM applied as in Example 1; compared to Cont and Cont2 Sunny conditions; ANOVA 5%
Description: Cultivated were Lycopersicum esculentum plants to which GSSG or GSH was applied by the method described in Example 1. Then, obtained fruit of the plants was subjected to sugar content determination using “Pocket” Refractometer APAL-1 (ATAGO CO., LTD.).
For comparison, Lycopersicum esculentum plants were cultivated under two types of conditions (referred to as “Cont” and “Cont2 Sunny”). In the Cont condition, Lycopersicum esculentum plants were cultivated by the same method as in Example 1, except that GSSG and GSH were not applied. In the Cont2 Sunny condition, a Lycopersicum esculentum plant was not applied with GSSG or GSH and was independently cultivated at a site sufficiently irradiated with sunlight so that illuminance on the Lycopersicum esculentum plant becomes 100%. In the Cont condition and a condition in which GSSG or GSH was applied, the plants were planted at intervals of 40 cm to 50 cm. In this case, a plant may intercept light irradiating another plant. Therefore, illuminance on such plants becomes less than 100%.
In the condition in which GSSG was applied, the condition in which GSH is applied, and the Cont condition, three Lycopersicum esculentum plants were cultivated, respectively. In the Cont2 Sunny condition, one Lycopersicum esculentum plant was cultivated. […]

[2] = tested on: Vitis labrusca (Delaware); assay: Cultivation of Vitis labrusca with GSSG or GSH, sensory test (Example 5); format: in vivo
Procedure: In the present invention, Vitis labrusca was cultivated. Specifically, immediately after flowering of a Vitis labrusca (Delaware) plant, a mixed solution of 1 mM gibberellin (GA3) and 1 mM of an agent was applied to anthotaxy of the plant. The agent was GSSG or GSH. Then, the plant was coated with the agent and thereafter produced fruit was harvested. For comparison, a Vitis labrusca plant was cultivated in the same way, except that GA3, but not GSSG or GSH, was applied, and fruit thereof was harvested and subjected to a sensory test described below.
The fruit harvested was subjected to a sensory test of sugar content. As a result, it was determined that fruit of the plant applied with GA3 and GSSG or GSH increased in sugar content compared to that of the plant applied with only GA3. Further, it was determined that the plant applied with GSSG and GA3 increased in size of fruit.

Substance: oxidized glutathione [GSSG]
- sugar content of fruit (Brix) [1]: significantly increased; also recorded: extremely high sugar content
- size of fruit ([2]; 1 mM agent mixed with 1 mM GA3, applied to anthotaxy): increased
- sugar content of fruit (sensory test) ([2]; 1 mM agent mixed with 1 mM gibberellin (GA3), applied to anthotaxy, compared to plant applied with only GA3): increased
- sugar content ([2]; applied without GA3): increased
